Experimental findings from patent US20070295251A1, “EPSP SYNTHASES: COMPOSITIONS AND METHODS OF USE” (Athenix Corporation, priority 2006, published 2007) are described below.

The target of data set [1] is GRG1 EPSP synthase variant EVO4, SEQ ID NO:43 (Q-loop core position 2 N, 10 I, 14 A, 16 I) (Pseudomonas putida, UniProt Q683S1, D85N/T97A). Kind of data set: EPSP synthase kinetics (AMPLEX Red fluorescence assay). The format is biochemical. The note with it: in words.
Protocol: (§3) Extracts were typically incubated with all assay components except shikimate-3-phosphate and AMPLEX™ Red for 5 minutes at room temperature, and assays were started by adding shikimate-3-phosphate and AMPLEX® Red.
(§4) Following full determination of kinetic parameters, the kinetic constants were determined as follows, adjusting for the quantity of protein determined by either antibody dot-blot analysis as described herein, or by Bradford Assay, as known in the art.
Data set [2] deals with GRG1 EPSP synthase variant EVO3, SEQ ID NO:37 (Q-loop core position 2 K, 10 G, 14 P, 16 L) (Pseudomonas putida, UniProt Q683S1, D85K/I93G/I99L/T97P). The data set is described as above. It is filed as biochemical. The conditions noted are these: in words.
Protocol: as §3, §4
Data set [3] addresses GRG1 EPSP synthase variant GRG1(EVO1), SEQ ID NO:28 (Q-loop core position 10 M, 12 L, 16 F) (Pseudomonas putida, UniProt Q683S1, I93M/I99F/M95L). The data set is described as above. The format is biochemical. The conditions noted are these: in words, relative to GRG1.
Protocol: as §3, §4
For data set [4], the system named is maize plants expressing GRG1(EVO5). In words: Glyphosate spray of transgenic maize plants. It is filed as in vivo. The note with it: 14 mM glyphosate spray. From the text: (§1) The grg1 (evo5) gene and grg1 (evo6) genes were each cloned into a plant expression vector suitable for Agrobacterium-mediated transformation, such vector containing at least (1) a promoter capable of expression in a plant cell, (2) a chloroplast peptide leader coding sequence, (3) a transcriptional terminator. The resulting clones, pAX4014 and pAX4032 respectively, were transferred to Agrobacterium as known in the art and described herein, and the resulting Agrobacterium strain used to develop transgenic maize callus and ultimately transgenic maize plants.
(§2) To transgenic plants were sprayed with glyphosate formulations of 14 mM glyphosate after adaptation to soil, and the resistance to the herbicide was scored after two weeks relative to non-transgenic controls.

For data set [5], the system named is maize plants expressing GRG1(EVO6). In words: Glyphosate spray of transgenic maize plants. It is filed as in vivo. The note with it: 14 mM glyphosate spray.
From the text: as §1, §2

Data set [6] has as its target GRG1 EPSP synthase variant EVO2, SEQ ID NO:5 (clone L1-C; Q-loop core position 12 A) (Pseudomonas putida, UniProt Q683S1, M95A). Kind of data set: EPSP synthase kinetics (AMPLEX Red fluorescence assay). The format is biochemical. The note with it: in words, relative to GRG1.
Protocol: as §3, §4
Another data set concerns EPSP synthase. How it is done: For any one glyphosate concentration, EPSP synthase activity was measured as a function of a broad range of PEP concentrations. The data were fit to the Michaelis-Menten equation using […]® software (Synergy Software) and used to determine the Km (Km apparent) of the EPSP synthase at that glyphosate concentration.
In data set [7] the test system is BL21*DE3 competent E. coli cells. Kind of data set: Screening for glyphosate resistance on plates (growth on M63+ agar with glyphosate). The note with it: kanamycin, IPTG, glyphosate concentration as in value. It is filed as cell-based. The method, then: Library ligations were transformed into BL21*DE3 competent E. coli cells (Invitrogen). The transformations were performed according to the manufacturer's instructions with the following modifications. After incubation for 1 hour at 37° C. in SOC medium, the cells were sedimented by centrifugation (5 minutes, 1000×g, 4° C.). The cells were washed with 1 ml M63+, centrifuged again, and the supernatant decanted. The cells were washed a second time with 1 ml M63+ and resuspended in 200 ul M63+.
For selection of mutant GRG1 enzymes conferring glyphosate resistance in E. coli, the cells were plated onto M63+ agar medium plates containing 50 mM glyphosate, 0.05 mM IPTG (isopropyl-beta-D-thiogalactopyranoside), and 50 ug/ml kanamycin. M63+ medium contains 100 mM KH2PO4, 15 mM (NH4)2SO4, 50 μM CaCl2, 1 μM FeSO4, 50 μM MgCl2, 55 mM glucose, 25 mg/liter L-proline, 10 mg/liter thiamine HCl, sufficient NaOH to adjust the pH to 7.0, and 15 g/liter agar. The plates were incubated for 36 hours at 37° C.

The procedure of data set [8]: DNA from grg1 (evo5) was mutagenized by PCR as known in the art, and cloned into pRSF1b (Invitrogen), and a library of mutagenized clones identified by virtue of growth on 50 mM glyphosate.

`C=C(OP(=O)(O)O)C(=O)O` [PEP, phosphoenolpyruvic acid]: the “Km for PEP” value in [1] is “reasonable, though somewhat elevated”; in data set [2] (vs GRG1) it was “virtually identical to GRG1”.
Take `O=C(O)CNCP(=O)(O)O` [glyphosate, N-phosphonomethylglycine]: the Ki for glyphosate entry in data set [1] (relative to GRG1), in [3], in data set [2] (relative to GRG1) and in data set [6] was “improved” each time. In addition, the “Seed Set” value in data set [4] and in [5] was “YES” each time. For the same molecule, the “Survival at 2 weeks post-spray” value in data set [4] and in data set [5] was “YES” in each case. The Chlorosis entry in data set [4] (two weeks) and in [5] (two weeks) was “NONE” in each case. Moreover, the Stunting entry in data set [4] (two weeks) and in data set [5] (two weeks) was “NONE” in each case.
Regarding “GRG1(EVO7): variant after mutagenesis of grg1 (evo6) in the Q-loop region (SEQ ID NO:64) (ITSEGVKPVAPFIKCGESGLSVRAFTPIVALSK; GRG1 variant - GRG1(4S-39))”, the “kinetic properties / parameters (in words)” value with EPSP synthase is “further improved kinetic properties over GRG1(EVO6)”. The “growth on glyphosate plates (glyphosate resistance in E. coli)” value in [7] is recorded as “glyphosate resistant”.
The like results for “GRG1(EVO8): variant after mutagenesis of grg1 (evo6) in the Q-loop region (SEQ ID NO:65) (ITSEGVKPVAPFIKCGESGLSGRMFPPIVALSK; GRG1 variant - GRG1(4S-60))” were, in that order, “further improved kinetic properties over GRG1(EVO6)” and “glyphosate resistant”.

B1: GRG1(EVO5): GRG1 Q-loop variant from Library 4 (SEQ ID NO:56) (protein)
chain: MKVTIQPGDLTGIIQSPASKSSMQRACAAALVAKGISEIINPGHSNDDKAARDIVSRLGARLEDQPDGSLQITSEGVKPVAPFIECGESGLSSRIFTPLVALSKEEVTIKGSGSLVTRPMDFFDEILPHLGVKVKSNQGKLPLVIQGPLKPADVTVDGSLSSQFLTGLLLAYAAADASDVAIKVTNLKSRPYIDLTLDVMKRFGLKTPENRNYEEFYFKAGNVYDETKMQRYTVEGDWSGGAFLLVAGAIAGPITVRGLDIASTQADKAIVQALMSANAGIAIDAKEIKLHPADLNAFEFDATDCPDLFPPLVALASYCKGETKIKGVSRLAHKESDRGLTLQDEFGKMGVEIHLEGDLMRVIGGKGVKGAEVSSRHDHRIAMACAVAALKAVGETTIEHAEAVNKSYPDFYSDLKQLGGVVSLNHQFNFS
modifications: GRG1 variant - GRG1(EVO5)
For B1, the “Km / affinity for PEP (in words)” value in the data set on EPSP synthase is “good affinity for PEP”. In addition, the “glyphosate resistance (in words, kinetic analysis)” value with EPSP synthase (relative to GRG1) is reported as “improved glyphosate resistance”.

B2: GRG1(EVO6): GRG1(EVO5) with N186 to K change (SEQ ID NO:57) (protein)
chain: MKVTIQPGDLTGIIQSPASKSSMQRACAAALVAKGISEIINPGHSNDDKAARDIVSRLGARLEDQPDGSLQITSEGVKPVAPFIECGESGLSSRIFTPLVALSKEEVTIKGSGSLVTRPMDFFDEILPHLGVKVKSNQGKLPLVIQGPLKPADVTVDGSLSSQFLTGLLLAYAAADASDVAIKVTKLKSRPYIDLTLDVMKRFGLKTPENRNYEEFYFKAGNVYDETKMQRYTVEGDWSGGAFLLVAGAIAGPITVRGLDIASTQADKAIVQALMSANAGIAIDAKEIKLHPADLNAFEFDATDCPDLFPPLVALASYCKGETKIKGVSRLAHKESDRGLTLQDEFGKMGVEIHLEGDLMRVIGGKGVKGAEVSSRHDHRIAMACAVAALKAVGETTIEHAEAVNKSYPDFYSDLKQLGGVVSLNHQFNFS
modifications: GRG1 variant - GRG1(EVO6)
B2: the soluble protein result in [8] was “substantial increase in soluble protein”.

B3: GRG1(5.2.B6): GRG1(EVO5) with V351 to A change (SEQ ID NO:58) (protein)
chain: MKVTIQPGDLTGIIQSPASKSSMQRACAAALVAKGISEIINPGHSNDDKAARDIVSRLGARLEDQPDGSLQITSEGVKPVAPFIECGESGLSSRLFTPLVALSKEEVTIKGSGSLVTRPMDFFDEILPHLGVKVKSNQGKLPLVIQGPLKPADVTVDGSLSSQFLTGLLLAYAAADASDVAIKVTKLKSRPYIDLTLDVMKRFGLKTPENRNYEEFYFKAGNVYDETKMQRYTVEGDWSGGAFLLVAGAIAGPITVRGLDIASTQADKAIVQALMSANAGIAIDAKEIKLHPADLNAFEFDATDCPDLFPPLVALASYCKGETKIKGVSRLAHKESDRGLTLQDEFGKMGVEIHLEGDLMRVIGGKGVKGAEVSSRHDHRIAMACAVAALKAVGETTIEHAEAVNKSYPDFYSDLKQLGGVVSLNHQFNFS
modifications: GRG1 variant - GRG1(EVO7)
Consider B3, for which the soluble protein entry in data set [8] is recorded as “substantial increase in soluble protein”.
